This series deals with SK-N-SH cells. Put plainly: MTT viability with dexamethasone. As to conditions: 24 h. The class given is cell-based, human. As to the method:
Preliminary results: The expression of GILZ in human neuroblastoma cells was evaluated. […] After resting, the cells were cultured with increasing concentrations of dexamethasone (Dex: 0-10 μM) for 24 h and viability was determined by the MTT assay by measuring the absorbance of the intracellular formazon resulting from the reduction of the yellow tetrazolium MTT by the cell metabolic activity. Absorbance of vehicle treated cells was taken as 100% viable. GILZ expression was measured in protein extracts from separate SK-N-SH cultures by Western blot analysis using GILZ mAb [Santa Cruz Biotechnology, Dallas, Tex.]. Total RNA isolated from similar SK-N-SH cultures was reverse transcribed and the GILZ mRNA was amplified using the SYBR green qPCR mix (SA Biosciences, Fredrick, Md.) on the ABI Prism 7000 system (Applied Biosystem, Calif.).

For `C[C@@H]1C[C@H]2[C@@H]3CCC4=CC(=O)C=C[C@]4(C)[C@@]3(F)[C@@H](O)C[C@]2(C)[C@@]1(O)C(=O)CO` [DEX, dexamethasone], the “toxicity (MTT viability)” value (1 μM) was “not toxic”. The reduction of viability (10 μM) is given as 25%.
